# Data published in US10966951B2, “Compositions and methods for lowering triglycerides in a subject having reduced kidney function” (Amarin Pharmaceuticals Ireland Limited, priority 2017, dated 2021).
# Key:
# Assay type in all cases: in vivo, human
# [1] = test system: patients with chronic kidney disease (eGFR<60 mL/min/1.73 m^2); assay: Renal parameters and safety in ANCHOR patients with CKD (Example 7)
# Procedure: (§1) CVD-related (e.g., atherogenic) parameters were analyzed in a post-hoc study of 55 patients from the multi-center, placebo-controlled, randomized double-blind, 12-week study described in Example 1. These 55 patients have chronic kidney disease (e.g., eGFR<60 mL/min/1.73 m^2 for ≥3 months). There was no lower limit of eGFR specified.
# (§2) 19 patients were randomized to E-EPA and 36 patients were randomized to placebo. One patient in each group discontinued and was excluded from efficacy analyses (but not safety analyses). EPA levels in plasma and RBC were measured in 23 of the 55 patients. These measurements were taken on 7 of the patients randomized to E-EPA and on 16 of the patients that were randomized to the placebo.
# (§3) The median difference in percent change from baseline between 4 g/day of E-EPA and placebo for the primary efficacy variable and additional assessments were estimated using the Hodges-Lehmann method (P values from the Wilcoxon rank-sum test for treatment comparisons). Using the Hodges-Lehmann method, departures from normal distribution were observed; for normally distributed parameters, an analysis of covariance model was used with least squares (LS) means and standard errors (SE). Missing values were imputed using the last-observation-carried-forward method. For all post hoc analyses, the alpha for statistical significance was 0.05.
# [2] = Essential fatty acid parameters in plasma, 6-week AAMI study (Example 2)
# Procedure: A single-center, 6-week, double-blind, randomized, parallel-group, placebo-controlled, dose-ranging pilot study was performed to evaluate the efficacy, tolerability, and safety of >96% E-EPA in subjects with subjective and objective memory impairment according to generally accepted criteria for Age-Associated Memory Impairment (“AAMI”). The primary objective of the study was to determine the effect of >96% E-EPA 1 g, 2 g, and 4 g daily, compared to placebo, on cognitive performance in subjects with AAMI.
# Ninety-four subjects were randomized into one of six groups: 1 g E-EPA daily (n=23), 2 g E-EPA daily (n=24), 4 g E-EPA daily (n=24), 1 g placebo daily (n=7), 2 g placebo daily (n=8), and 4 g placebo daily (n=8). E-EPA was provided as 500 mg soft gel capsules containing >96% E-EPA and 0.2% dl-α-tocopherol as an antioxidant. Placebo capsules contained 467 mg of liquid paraffin and 0.2% dl-α-tocopherol. Ninety-one subjects completed the study. Two subjects in the 2 g E-EPA group and one subject in the 2 g placebo group discontinued the study.
# Blood samples (10 mL) were collected at Visit 1 (screening) and at Visits 4, 5, and 6. Analysis was performed by MSR Lipid Analysis, Scottish Crop Research Institute, Dundee, UK. The screening sample acted as baseline for the EFA measurements. Lipid was extracted from plasma, serum, and RBC suspensions and converted into fatty acid methyl esters which were analyzed by gas chromatography to give fatty acid profiles as micrograms fatty acid per gram of sample ([…]) and normalized area percent.
# RBC and plasma EFA data were collected at baseline, Day 14, 28, and 42 and summarized by visit for each treatment group. Change from baseline and percent change from baseline were also summarized. ANCOVA comparison of E-EPA dose groups and E-EPA versus placebo was performed.
# [3] = test system: patients with chronic kidney disease (eGFR<60 mL/min/1.73 m^2); assay: Post-hoc ANCHOR analysis, chronic kidney disease: lipid, lipoprotein, oxidation and inflammation parameters (Example 7); conditions: CKD
# Procedure: as §1, §2
# The primary objective of this post-hoc study, which is based on an intention to treat, was to determine if and how 4 g daily of >96% E-EPA affects patients with stage 3 chronic kidney disease (e.g., eGFR<60 mL/min/1.73 m^2 for ≥3 months). The secondary objective was to determine if and how 4 g daily of >96% E-EPA, compared to a placebo, affected CVD-related parameters in patients with a high risk of CVD and fasting TG levels ≥[…] and <500 mg/dL, despite LDL-C goal on statin therapy. These CVD-parameters include lipid levels, lipoprotein levels, and inflammatory markers, such as TC, LDL-C, HDL-C, vLDL-C, vLDL-TG, RLP-C, non-HDL-C, Apo B, Apo C-III, Lp-PLA, hsCRP, and ox-LDL, and in plasma and RBC EPA concentration. CVD-parameters were analyzed for median difference in percent change from baseline to week 12 in subjects receiving 4 g/day of E-EPA and those receiving the placebo.
# as §3
compound,measurement,setting,value
"CC/C=C\C/C=C\C/C=C\C/C=C\C/C=C\CCCC(=O)OCC [E-EPA, ethyl eicosapentaenoate]","nausea, nasopharyngitis, and arthralgia",[1]; 4 g/day,not reported by any patients
same,eGFR median difference in change from baseline compared with placebo,"[1]; 4 g/day vs placebo, P=0.1983",−7.8%
same,serum creatinine median difference in change from baseline compared with placebo,"[1]; 4 g/day vs placebo, P=0.1983",6.5%
same,BUN median difference in change from baseline compared with placebo,"[1]; 4 g/day vs placebo, P=0.5291",5.5%
same,BUN median difference in change from baseline compared with placebo,"[1]; 4 g/day vs placebo, P=0.5471",1.0 mg/dL
same,patients reporting diarrhea,"[1]; 4 g/day, 2 patients",10.5%
same,patients reporting TEAE,"[1]; 4 g/day, 11 of 19 patients",57.9%
same,serum albumin change from baseline,"[1]; 4 g/day, 12-week study",no significant median changes from baseline
same,"BUN, median (IQR), baseline","[1]; 4 g/day, baseline",24.5 (12.0) mg/dL
same,"eGFR, median (IQR), baseline","[1]; 4 g/day, baseline",55.0 (13.8) mL/min/1.73 m^2
same,"serum creatinine, median (IQR), baseline","[1]; 4 g/day, baseline",1.2 (0.3) mg/dL
same,"changes in serum creatinine, blood urea nitrogen (BUN), or eGFR from baseline to week 12","[1]; 4 g/day, compared to placebo control",did not produce significant changes
same,"BUN, median (IQR), week 12","[1]; 4 g/day, week 12",22.5 (11.0) mg/dL
same,"eGFR, median (IQR), week 12","[1]; 4 g/day, week 12",56.0 (12.9) mL/min/1.73 m^2
same,"serum creatinine, median (IQR), week 12","[1]; 4 g/day, week 12",1.2 (0.4) mg/dL
same,"EPA, DPAn-3, and EPA/AA ratio values from baseline to Day 42","[2]; plasma and RBC, 1, 2, and 4 g treatment groups",increased substantially
same,"AA Mean change from Baseline, Mean (SD)","[2]; plasma, 1 g daily, Day 14",−9.7 (22.20) μg/g
same,"DHA Mean change from Baseline, Mean (SD)","[2]; plasma, 1 g daily, Day 14",−6.4 (13.30) μg/g
same,"EPA/AA Mean change from Baseline, Mean (SD)","[2]; plasma, 1 g daily, Day 14",0.3 (0.4)
same,"DHA Mean change from Baseline, Mean (SD)","[2]; plasma, 1 g daily, Day 28",−6.6 (15.53) μg/g
same,"EPA/AA Mean change from Baseline, Mean (SD)","[2]; plasma, 1 g daily, Day 28",0.3 (0.20)
same,"AA Mean change from Baseline, Mean (SD)","[2]; plasma, 1 g daily, Day 42",−8.7 (31.35) μg/g
same,"DGLA Mean change from Baseline, Mean (SD)","[2]; plasma, 1 g daily, Day 42",−9.4 (9.41) μg/g
same,"DHA Mean change from Baseline, Mean (SD)","[2]; plasma, 1 g daily, Day 42",−5.4 (18.17) μg/g
same,"EPA/AA Mean change from Baseline, Mean (SD)","[2]; plasma, 1 g daily, Day 42",0.3 (0.24)
same,EPA/AA Baseline Mean (SD),"[2]; plasma, 1 g daily",0.2 (0.14)
same,"AA LS Mean, 1 g versus 4 g","[2]; plasma, 1 g versus 4 g",4.2 µg/g
same,"DGLA LS Mean, 1 g versus 4 g","[2]; plasma, 1 g versus 4 g",3.7 µg/g
same,"DHA LS Mean, 1 g versus 4 g","[2]; plasma, 1 g versus 4 g",-0.8 µg/g
same,"EPA/AA LS Mean, 1 g versus 4 g","[2]; plasma, 1 g versus 4 g",−0.66
same,"DHA Mean change from Baseline, Mean (SD)","[2]; plasma, 2 g daily, Day 14",−5.4 (14.29) μg/g
same,"EPA/AA Mean change from Baseline, Mean (SD)","[2]; plasma, 2 g daily, Day 14",0.6 (0.23)
same,"DHA Mean change from Baseline, Mean (SD)","[2]; plasma, 2 g daily, Day 28",−8.1 (15.82) μg/g
same,"EPA/AA Mean change from Baseline, Mean (SD)","[2]; plasma, 2 g daily, Day 28",0.8 (0.35)
same,"DHA Mean change from Baseline, Mean (SD)","[2]; plasma, 2 g daily, Day 42",−6.0 (16.69) μg/g
same,"EPA/AA Mean change from Baseline, Mean (SD)","[2]; plasma, 2 g daily, Day 42",0.7 (0.29)
same,EPA/AA Baseline Mean (SD),"[2]; plasma, 2 g daily",0.2 (0.12)
same,"DGLA LS Mean, 2 g versus 4 g","[2]; plasma, 2 g versus 4 g",2.5 µg/g
same,"DHA LS Mean, 2 g versus 4 g","[2]; plasma, 2 g versus 4 g",1.5 µg/g
same,"EPA/AA LS Mean, 2 g versus 4 g","[2]; plasma, 2 g versus 4 g",−0.41
same,"EPA/AA Mean change from Baseline, Mean (SD)","[2]; plasma, 4 g daily, Day 14",1.1 (0.28)
same,"EPA/AA Mean change from Baseline, Mean (SD)","[2]; plasma, 4 g daily, Day 28",1.3 (0.42)
same,"EPA/AA Mean change from Baseline, Mean (SD)","[2]; plasma, 4 g daily, Day 42",1.3 (0.45)
same,EPA/AA Baseline Mean (SD),"[2]; plasma, 4 g daily",0.2 (0.07)
same,VLDL-C Median Difference in % Change From Baseline vs Placebo,"[3]; 4 g/day vs placebo, week 12",−26.7%
same,hsCRP Median Difference in % Change From Baseline vs Placebo,"[3]; 4 g/day vs placebo, week 12, listed as Icosapent Ethyl",−25.0%
same,Apo B Baseline,"[3]; 4 g/day, baseline",87.0 mg/dL
same,HDL-C Baseline,"[3]; 4 g/day, baseline",35.0 mg/dL
same,LDL-C Baseline,"[3]; 4 g/day, baseline",76.0 mg/dL
same,VLDL-C Baseline,"[3]; 4 g/day, baseline",42.0 mg/dL
same,hsCRP Baseline,"[3]; 4 g/day, baseline",1.9 mg/L
same,RLP-C Baseline,"[3]; 4 g/day, baseline, n = 9",17.0 mg/dL
same,"Apo B Change From Baseline, %","[3]; 4 g/day, week 12",−7.2%
same,Apo B End of Treatment,"[3]; 4 g/day, week 12",83.0 mg/dL
same,"Apo C-III Change From Baseline, %","[3]; 4 g/day, week 12",−7.3%
same,"HDL-C Change From Baseline, %","[3]; 4 g/day, week 12",0.9%
same,"LDL-C Change From Baseline, %","[3]; 4 g/day, week 12",−6.5%
same,Lp-PLA2 End of Treatment,"[3]; 4 g/day, week 12",150.0 ng/mL
same,"Non-HDL-C Change From Baseline, %","[3]; 4 g/day, week 12",−6.4%
same,"Ox-LDL Change From Baseline, %","[3]; 4 g/day, week 12",−9.5%
same,RLP-C End of Treatment,"[3]; 4 g/day, week 12",10.0 mg/dL
same,"TC Change From Baseline, %","[3]; 4 g/day, week 12",−8.1%
same,"hsCRP Change From Baseline, %","[3]; 4 g/day, week 12",−16.9%
same,hsCRP End of Treatment,"[3]; 4 g/day, week 12",2.1 mg/L
